Data taken from US20260285863A1, “COMPOUNDS CAPABLE OF MODULATING GPR65” (Pathios Therapeutics Limited, priority 2023, published 2026).

Molecular target: T1, human recombinant GPR65 (Homo sapiens, UniProt Q8IYL9)
T1 construct: host or cells: 1321N1 human astrocytoma cells (1321N1-hrGPR65)
Test: Human GPR65 cAMP HTRF antagonist assay
Assay type: cell-based
Details: 1321N1-hrGPR65 cells, assay pH 7.2, cAMP HTRF; read-out: hGPR65 IC50
Text: The “Human GPR65 cyclic adenosine monophosphate (cAMP) Homogeneous Time Resolved Fluorescence (HTRF) antagonist assay”, or simply “cAMP assay”, as described in the accompanying examples, can be used to measure the potency of GPR65 modulators, which is expressed as the concentration of compound required to reduce the increase in cAMP concentration upon GPR65 activation by 50% (i.e. an IC50).
Human GPR65 Cyclic Adenosine Monophosphate (cAMP) Homogeneous Time Resolved Fluorescence (HTRF) Antagonist Assay Procedure
IC50data was obtained by the following procedure:
1321N1 human astrocytoma cells stably expressing human recombinant GPR65 (1321N1-hrGPR65 cells, EuroscreenFast) were cultured according to the vendor's instructions.
Compounds were tested for their ability to antagonise GPR65, through measuring the concentration of cytoplasmic cAMP following treatment of the cells at a pH of 7.2 to activate GPR65 signalling and addition of the compound to be tested. The extent to which the expected rise in cAMP concentration upon GPR65 activation was suppressed by the added compound is indicative of its potency. The assay was carried out according to EuroscreenFast assay Methodology as follows.
On the day of the assay, test compounds were added to 384-well, low volume, white microtiter plates by acoustic dispensing. KRH buffer (5 mM KCl, 1.25 mM MgSO4, 124 mM NaCl, 25 mM HEPES, 13.3 mM Glucose, 1.25 mM KH2PO4 and 1.45 mM CaCl2) was adjusted to pH 6.5, pH 7.6 and pH 8.4 by adding NaOH. 1321N1-hGPR65 cells were rapidly thawed and diluted in KRH, pH 7.6 prior to centrifugation at 300×g for 5 min and resuspension in assay buffer (KRH, pH 7.6, supplemented with 1 mM 3-isobutyl-1-methylxanthine (IBMX) and 200 μM ethylenediaminetetraacetic acid (EDTA)). Cells were added to assay plates at a density of 2,000 cells per well in a volume of […]. Assay plates were briefly centrifuged at 100×g and then incubated at room temperature for 30 min. Cells were stimulated by the addition of 5 μL KRH, pH 6.5, to achieve an assay pH of 7.2, while control wells received […] KRH, pH 8.4 to achieve an assay pH of 7.9. Assay plates were briefly centrifuged at 100×g and then incubated at room temperature for 30 min.
Accumulation of cAMP was detected by cAMP HTRF kit (Cisbio). d2-labeled cAMP and cryptate-labeled anti-cAMP antibody in Lysis and Detection Buffer (Cisbio) were added to assay plates, and the plates were incubated at room temperature for 1 h. HTRF measurements were performed using a Pherastar FSX instrument. Acceptor and donor emission signals were measured at 665 nm and 620 nm, respectively, and HTRF ratios were calculated as signal665 nm/signal620 nm×104. Data were normalised to high and low control values and fitted with 4-parameter logistic regression to determine hGPR65 IC50 values for the test compounds, which are shown in Table 1.

T1 sequence (Q8IYL9 whole entry): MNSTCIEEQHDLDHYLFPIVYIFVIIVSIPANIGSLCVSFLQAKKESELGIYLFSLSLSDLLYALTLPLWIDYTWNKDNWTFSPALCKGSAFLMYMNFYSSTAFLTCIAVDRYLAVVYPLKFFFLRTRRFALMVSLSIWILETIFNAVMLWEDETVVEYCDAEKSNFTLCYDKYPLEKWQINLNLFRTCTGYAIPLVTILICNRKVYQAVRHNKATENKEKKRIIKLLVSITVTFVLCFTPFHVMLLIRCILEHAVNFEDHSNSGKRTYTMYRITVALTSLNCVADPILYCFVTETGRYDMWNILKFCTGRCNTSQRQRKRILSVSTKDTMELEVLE

Structure (SMILES) | IC50
O=C(Nc1cc(Cl)c(-c2ccc3nonc3c2)cn1)N1C2CCC1[C@H](F)c1c2ccnc1F (mixture of isomers) [Compound 5, (±,9S)-N-(5-(benzo[c][1,2,5]oxadiazol-5-yl)-4-chloropyridin-2-yl)-1,9-difluoro-6,7,8,9-tetrahydro-5H-5,8-epiminocyclohepta[c]pyridine-10-carboxamide] | < 500 nM
O=C(Nc1cc(Cl)c(C(F)(F)F)cn1)N1C2CCC1[C@H](F)c1c2ccnc1F (mixture of isomers) [Compound 33, (±)(9S)-N-(4-chloro-5-(trifluoromethyl)pyridin-2-yl)-1,9-difluoro-6,7,8,9-tetrahydro-5H-5,8-epiminocyclohepta[c]pyridine-10-carboxamide] | < 500 nM
O=C(Nc1cc(Cl)c(C(F)(F)F)cn1)N1C2CCC1C(F)(F)c1c2ccnc1F (racemic) [Compound 34, (±)-N-(4-chloro-5-(trifluoromethyl)pyridin-2-yl)-1,9,9-trifluoro-6,7,8,9-tetrahydro-5H-5,8-epiminocyclohepta[c]pyridine-10-carboxamide] | < 500 nM
O=C(Nc1cc(Cl)c(Cl)cn1)N1C2CCC1[C@H](F)c1c2ccnc1F (mixture of isomers) [Compound 35, (±)(9S)-N-(4,5-dichloropyridin-2-yl)-1,9-difluoro-6,7,8,9-tetrahydro-5H-5,8-epiminocyclohepta[c]pyridine-10-carboxamide] | < 500 nM
O=C(Nc1cc(Cl)c(Cl)cn1)N1C2CCC1C(F)(F)c1c2ccnc1F (racemic) [Compound 36, (±)-N-(4,5-dichloropyridin-2-yl)-1,9,9-trifluoro-6,7,8,9-tetrahydro-5H-5,8-epiminocyclohepta[c]pyridine-10-carboxamide] | < 500 nM
O=C(Nc1cc(Cl)c(-c2ccc(OCC(F)(F)F)nc2)cc1F)N1C2CCC1C(F)(F)c1c2ccnc1F (racemic) [Compound 70, (±)-N-(5-Chloro-2-fluoro-4-(6-(2,2,2-trifluoroethoxy)pyridin-3-yl)phenyl)-1,9,9-trifluoro-6,7,8,9-tetrahydro-5H-5,8-epiminocyclohepta[c]pyridine-10-carboxamide] | < 500 nM
O=C(Nc1cc(Cl)c(-c2ccc(OC[C@@H]3CCOC3)nc2)cc1F)N1[C@H]2CC[C@@H]1c1c[nH]c(=O)cc1C2 (single isomer, unassigned) [Compound 47] | < 500 nM
O=C(Nc1cc(Cl)c(-c2ccc(OC[C@H]3CCOC3)nc2)cc1F)N1[C@H]2CC[C@@H]1c1c[nH]c(=O)cc1C2 (single isomer, unassigned) [Compound 48] | < 500 nM
O=C(Nc1cc(Cl)c(-c2ccc(O[C@@H]3CCN(CC(F)(F)F)C3)nc2)cc1F)N1[C@H]2CC[C@@H]1c1c[nH]c(=O)cc1C2 (single isomer, unassigned) [Compound 77] | < 500 nM
O=C(Nc1cc(Cl)c(-c2ccc(O[C@H]3CCN(CC(F)(F)F)C3)nc2)cc1F)N1[C@H]2CC[C@@H]1c1c[nH]c(=O)cc1C2 (single isomer, unassigned) [Compound 78] | < 500 nM
O=C(Nc1cc(Cl)c(-c2ccc(OCC34COC(C3)C4)nc2)cc1F)N1[C@H]2CC[C@@H]1c1n[nH]c(=O)cc1C2 [Compound 1, (6S,9R)-N-(4-(6-((2-oxabicyclo[2.1.1]hexan-4-yl)methoxy)pyridin-3-yl)-5-chloro-2-fluorophenyl)-3-oxo-3,5,6,7,8,9-hexahydro-2H-6,9-epiminocyclohepta[c]pyridazine-10-carboxamide] | < 500 nM
O=C(Nc1cc(Cl)c(-c2ccc(NCC(F)(F)F)nc2)cc1F)N1[C@H]2CC[C@@H]1c1n[nH]c(=O)cc1C2 [Compound 2, (6S,9R)-N-(5-chloro-2-fluoro-4-(6-((2,2,2-trifluoroethyl)amino)pyridin-3-yl)phenyl)-3-oxo-3,5,6,7,8,9-hexahydro-2H-6,9-epiminocyclohepta[c]pyridazine-10-carboxamide] | < 500 nM
CN(CC(F)(F)F)c1ccc(-c2cc(F)c(NC(=O)N3[C@H]4CC[C@@H]3c3n[nH]c(=O)cc3C4)cc2Cl)cn1 [Compound 3, (6S,9R)-N-(5-chloro-2-fluoro-4-(6-(methyl(2,2,2-trifluoroethyl)amino)pyridin-3-yl)phenyl)-3-oxo-3,5,6,7,8,9-hexahydro-2H-6,9-epiminocyclohepta[c]pyridazine-10-carboxamide] | < 500 nM
O=C(Nc1cc(Cl)c(-c2ccc(OCC(F)(F)F)nn2)cc1F)N1[C@H]2CC[C@@H]1c1n[nH]c(=O)cc1C2 [Compound 6, (6S,9R)-N-(5-chloro-2-fluoro-4-(6-(2,2,2-trifluoroethoxy)pyridazin-3-yl)phenyl)-3-oxo-3,5,6,7,8,9-hexahydro-2H-6,9-epiminocyclohepta[c]pyridazine-10-carboxamide] | < 500 nM
O=C(NC12CC(c3ccc(OCC(F)(F)F)nc3)(C1)C2)N1[C@H]2CC[C@@H]1c1n[nH]c(=O)cc1C2 [Compound 7, (6S,9R)-3-Oxo-N-(3-(6-(2,2,2-trifluoroethoxy)pyridin-3-yl)bicyclo[1.1.1]pentan-1-yl)-3,5,6,7,8,9-hexahydro-2H-6,9-epiminocyclohepta[c]pyridazine-10-carboxamide] | 500 to 5000 nM
CN(CC(F)(F)F)c1ccc(-c2cc(F)c(NC(=O)N3[C@H]4CC[C@@H]3c3c[nH]c(=O)cc3C4)cc2Cl)cn1 [Compound 8, (6S,9R)-N-(5-chloro-2-fluoro-4-(6-(methyl(2,2,2-trifluoroethyl)amino)pyridin-3-yl)phenyl)-3-oxo-3,5,6,7,8,9-hexahydro-2H-6,9-epiminocyclohepta[c]pyridine-10-carboxamide] | < 500 nM
CN(C(=O)N1[C@H]2CC[C@@H]1c1n[nH]c(=O)cc1C2)c1cc(Cl)c(-c2ccc(OCC(F)(F)F)nc2)cc1F [Compound 9, (6S,9R)-N-(5-chloro-2-fluoro-4-(6-(2,2,2-trifluoroethoxy)pyridin-3-yl)phenyl)-N-methyl-3-oxo-3,5,6,7,8,9-hexahydro-2H-6,9-epiminocyclohepta[c]pyridazine-10-carboxamide] | 500 to 5000 nM
O=C(Nc1cc(Cl)c(-c2ccc(OC3CCCC3)nc2)cc1F)N1[C@H]2CC[C@@H]1c1c[nH]c(=O)cc1C2 [Compound 10, (6S,9R)-N-(5-chloro-4-(6-(cyclopentyloxy)pyridin-3-yl)-2-fluorophenyl)-3-oxo-3,5,6,7,8,9-hexahydro-2H-6,9-epiminocyclohepta[c]pyridine-10-carboxamide] | < 500 nM
O=C(Nc1cc(Cl)c(-c2cnc(OCC(F)(F)F)c(F)c2)cc1F)N1[C@H]2CC[C@@H]1c1c[nH]c(=O)cc1C2 [Compound 11, (6S,9R)-N-(5-chloro-2-fluoro-4-(5-fluoro-6-(2,2,2-trifluoroethoxy)pyridin-3-yl)phenyl)-3-oxo-3,5,6,7,8,9-hexahydro-2H-6,9-epiminocyclohepta[c]pyridine-10-carboxamide] | < 500 nM
O=C(Nc1cc(Cl)c(-c2ccc(OCC(F)(F)F)nn2)cc1F)N1[C@H]2CC[C@@H]1c1c[nH]c(=O)cc1C2 [Compound 12, (6S,9R)-N-(5-chloro-2-fluoro-4-(6-(2,2,2-trifluoroethoxy)pyridazin-3-yl)phenyl)-3-oxo-3,5,6,7,8,9-hexahydro-2H-6,9-epiminocyclohepta[c]pyridine-10-carboxamide] | < 500 nM
